Laboratory results taken from patent US10308959B2, “Methods, systems, and compositions relating to MiRNA-146a” (Henry Ford Health System, priority 2013, dated 2019).

Assays:
[1] = system: primary rat embryonic OPCs; test: QrtPCR of mRNA (MBP, p38MAPK) in primary rat embryonic OPCs; format: cell-based; details: in the presence of polymyxin B (50 μg/ml); 50 and 100 ng/ml, 4 days
Experimental: Primary rat embryonic OPCs were isolated and prepared according to the method known to the skilled artisan. Briefly, on embryonic day 17, rat embryos were removed from a pregnant Wistar rat in a laminar flow hood. The cortices were dissected out by using microdissecting scissors, rinsed twice in Hank's buffered salt solution and dissociated after digesting with 0.01% trypsin and DNase at 37° C. for 15 min. The digested cells were washed twice, filtered through a 70 mm nylon cell strainer and plated with DMEM containing 20% fetal bovine serum (FBS) in poly-D-lysine coated T75 cell culture flasks (approximately 10 million cells per flask). The cells grew to confluence for 10 days and then were placed on the shaker at 200 r.p.m. at 37° C. for 1 h to remove microglial cells. Subsequently, the cells were left on the shaker for an additional 18-20 h to collect OPCs. The collected OPCs were plated in untreated Petri dishes for 1 h to remove contaminated microglia and astrocytes which attach to the Petri dish more efficiently than OPCs. The unattached OPCs were transferred onto poly-D,L-ornithine-coated Petri dishes at a cell density of 10^4 per/cm2 with a basal chemically defined medium (“BDM”) containing 10 ng/ml platelet-derived growth factor-alpha (“PDGF-AA”) and 10 ng/ml basic fibroblast growth factor (“bFGF”) for 7-10 days.
The mouse primary cultures of OPCs were conditionally immortalized by transformation with a temperature-sensitive large T-antigen into a mouse OPC cell line-N20.1 (21). N20.1 cells were provided by Dr. Anthony Campagnoni (University of California at Los Angeles). N20.1 cells were grown and maintained in Dulbecco's modified Eagle's medium (“DMEM”)/F12 with 1% fetal bovine serum (“FBS”) and G418 (100 μg/ml) at 37° C. For N20.1 cells, transient transfections were performed with Nucleofector kit according to the manufacturer's protocol (Amaxa, Germany). The cells (10^6) were mixed with 1 μg plasmid DNA or 100 pmol of siRNA/oligo nucleotides and pulsed according to the manufacturer's instruction. […]

[2] = system: mouse OPC cell line-N20.1; test: QrtPCR of mRNA (MBP, p38MAPK) in N20.1 cells; format: cell-based; details: in the presence of polymyxin B (50 μg/ml); 50 and 100 ng/ml, 4 days
Experimental: The mouse primary cultures of OPCs were conditionally immortalized by transformation with a temperature-sensitive large T-antigen into a mouse OPC cell line-N20.1 (21). N20.1 cells were provided by Dr. Anthony Campagnoni (University of California at Los Angeles). N20.1 cells were grown and maintained in Dulbecco's modified Eagle's medium (“DMEM”)/F12 with 1% fetal bovine serum (“FBS”) and G418 (100 μg/ml) at 37° C. For N20.1 cells, transient transfections were performed with Nucleofector kit according to the manufacturer's protocol (Amaxa, Germany). The cells (10^6) were mixed with 1 μg plasmid DNA or 100 pmol of siRNA/oligo nucleotides and pulsed according to the manufacturer's instruction. The transfected cells were immediately plated into Petri dishes with DMEM containing 1% FBS and incubated at 37° C. for days. Primary rat embryonic OPCs were transiently transfected with Lipofectamine (Invitrogen) overnight, according to the manufacturer's protocol (see Chew et al., J. Neuroscience 30(33): 11011-11027 (2010)). Amounts of DNA and siRNA/oligo nucleotides were used as recommended by the manufacturer. The control plasmid (pcDNA3) was used as a mock transfected control for miR-146a expression vector transfection, and control siRNA (Ambion, a random mixture of oligonucleotides) was used as a mock transfected control for both transfections with Tβ4siRNA and anti-miR-146a inhibitor nucleotides. The cells (10^4 cells/cm^2) were treated with 0, 25, 50, 100 ng/ml of Tβ4 (RegeneRx Biopharmaceuticals Inc., Rockville, Md.). The cells were incubated at 37° C. and fed every 2 days with fresh medium (DMEM containing 1% FBS for N20.1 cells and BDM for primary rat embryonic OPCs) with and without Tβ4 for 4 days. […]
After qrtPCR, agarose gel electrophoresis was performed to verify the quality of the qrtPCR products. No secondary products were detected. […] Values obtained from three independent experiments were analyzed relative to gene expression data using the 2^−ΔΔCT method.

## boiled denatured Tβ4: Tβ4 (100 ng/ml) boiled for 10 minutes to denature the protein, used as a negative control (SDKPDMAEIEKFDKSKLKKTETQEKNPLPSKETIEQEKQAGES; heat-denatured; UniProt P62328 2-44, looked up) [reference compound]
[1]
  expression of MBP, mRNA and protein levels: no effect
[2]
  expression of MBP, mRNA and protein levels: no effect
